Measurements reported in US5506122A, “Process for producing nucleosides” (Yamasa Shoyu Kabushiki Kaisha, priority 1989, dated 1996).
Like-named read-outs stand apart in the source and are kept apart here.

Assays:
[1] = biological target: T1, purine nucleoside phosphorylase (Geobacillus stearothermophilus, UniProt P77834); experiment: Substrate specificity: phosphorolysis of purine nucleoside substrates by purified enzyme; format: biochemical, Bacillus stearothermophilus TH6-2; conditions: for activity at 10000 µM: 10 min; for Substrate specificity of purine nucleoside phosphorylase, in words: within the range tested
T1 construct: nucleoside phosphorylase obtained by extraction/purification from Bacillus stearothermophilus TH6-2; endogenous in cells; host or cells: Bacillus stearothermophilus TH6-2 (FERM BP-2758), enzyme purified in house from the wild cells
T1 sequence (P77834 1-274): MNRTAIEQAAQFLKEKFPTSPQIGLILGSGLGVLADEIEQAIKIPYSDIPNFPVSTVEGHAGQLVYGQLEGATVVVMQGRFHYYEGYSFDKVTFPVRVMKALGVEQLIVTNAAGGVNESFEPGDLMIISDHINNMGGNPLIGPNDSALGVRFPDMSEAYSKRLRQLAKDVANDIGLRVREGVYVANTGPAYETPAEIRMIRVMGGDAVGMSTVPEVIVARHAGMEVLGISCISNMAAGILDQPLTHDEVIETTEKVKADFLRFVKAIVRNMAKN
Method: Into 1.0 ml of a substrate solution (aqueous solution of pH 8.0 containing 20 mM inosine and 0.1M potassium dihydrogenphosphate) is added 20 μl of an enzyme solution (50 mM acetate buffer (pH 6.0) containing 1 μg of purified enzyme), and the reaction is carried out at 50° C. for 10 minutes. Then the reaction is stopped by addition of HCl to a final concentration of 0.1N, and also cooling at 0° C. for 10 minutes. Next, the reaction is subjected to centrifugation, and the supernatant obtained is then subjected to the HPLC method (column: YMC A-312 (manufactured by Yamamura Kagaku Kenkyusho, K.K.), eluent: 20 mM Tris-HCl buffer (pH 7.5) containing 5.0% acetonitrile, detection: 260 nm) to quantitate the hypoxanthine formed. The enzyme amount forming 1 μmol of hypoxanthine per one minute is defined as one unit ("U").
(§1) By the use of an aqueous solution of pH 8.0 containing 10 mM of a nucleoside and 50 mM of potassium dihydrogenphosphate as a substrate solution, the reaction is carried out at 50° C. for 10 minutes, and after the reaction, except for quantitating the base of the nucleoside according to the HPLC method, the same method as in the assay of purine nucleoside phosphorylase activity is conducted.

[2] = biological target: T2, pyrimidine nucleoside phosphorylase (Geobacillus stearothermophilus, UniProt P77836); experiment: Substrate specificity: phosphorolysis of pyrimidine nucleoside substrates by purified enzyme; format: biochemical, Bacillus stearothermophilus TH6-2; conditions: for Amount of Base Formed / Relative Activity: 10 mM nucleoside, 50 mM potassium dihydrogenphosphate, pH 8.0, 50° C., 10 minutes; for Substrate specificity of pyrimidine nucleoside phosphorylase, in words: within the range tested
T2 construct: nucleoside phosphorylase obtained by extraction/purification from Bacillus stearothermophilus TH6-2; endogenous in cells; host or cells: Bacillus stearothermophilus TH6-2 (FERM BP-2758), enzyme purified in house from the wild cells
T2 sequence (P77836 1-433): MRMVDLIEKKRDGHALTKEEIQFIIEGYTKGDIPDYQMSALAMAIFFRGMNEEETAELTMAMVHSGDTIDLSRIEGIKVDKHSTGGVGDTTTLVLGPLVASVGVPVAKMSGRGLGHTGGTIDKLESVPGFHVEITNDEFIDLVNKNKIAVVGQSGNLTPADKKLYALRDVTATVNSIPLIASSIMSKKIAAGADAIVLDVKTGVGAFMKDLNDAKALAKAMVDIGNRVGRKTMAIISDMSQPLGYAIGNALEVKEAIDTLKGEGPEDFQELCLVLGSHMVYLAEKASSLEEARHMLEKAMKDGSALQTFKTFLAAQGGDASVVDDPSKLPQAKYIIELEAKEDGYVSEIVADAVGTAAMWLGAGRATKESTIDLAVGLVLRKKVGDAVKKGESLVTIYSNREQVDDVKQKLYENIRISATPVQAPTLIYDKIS
Method: Except for using uridine in place of inosine in the substrate solution and quantitating uracil according to the HPLC method, the same method as in the above-described assay of purine nucleoside phosphorylase activity is conducted. The amount of enzyme forming 1 μmol of uracil per one minute is defined as one unit.
as §1

[3] = 10 mM nucleoside, 50 mM potassium dihydrogenphosphate, pH 8.0, 50° C., 10 minutes
[4] = 10 mM nucleoside, 50 mM potassium dihydrogenphosphate, pH 8.0, 50° C., 10 minutes, read-out: Relative Activity
[5] = pH 8, read-out: Relative Activity

| SMILES | Amount of Base Formed [1, 3] [μmol/10 min.] | activity at 10000 µM [1, 4] [%] | Amount of Base Formed [2] [μmol/10 min.] | Relative Activity [2] [%] | other results |
| --- | --- | --- | --- | --- | --- |
| Nc1ncnc2c1ncn2[C@H]1C[C@H](O)[C@@H](CO)O1 [2'-Deoxyadenosine] | 0 | 0 |  |  |  |
| Nc1ccn([C@H]2C[C@H](O)[C@@H](CO)O2)c(=O)n1 [2'-Deoxycytidine] |  |  | 0 | 0 |  |
| Nc1nc2c(ncn2[C@H]2C[C@H](O)[C@@H](CO)O2)c(=O)[nH]1 [2'-Deoxyguanosine] | 2.18 | 85 |  |  | Substrate specificity of purine nucleoside phosphorylase, in words [1]: specific |
| OC[C@H]1O[C@@H](n2cnc3c(O)ncnc32)C[C@@H]1O [2'-Deoxyinosine] | 2.54 | 100 |  |  | Substrate specificity of purine nucleoside phosphorylase, in words [1]: specific |
| O=c1ccn([C@H]2C[C@H](O)[C@@H](CO)O2)c(=O)[nH]1 [2'-Deoxyuridine] |  |  | 2.55 | 100 | Substrate specificity of pyrimidine nucleoside phosphorylase, in words [2]: specific |
| Nc1ncnc2c1ncn2[C@@H]1O[C@H](CO)C[C@H]1O [3'-Deoxyadenosine] | 0 | 0 |  |  |  |
| OC[C@@H]1C[C@@H](O)[C@H](n2cnc3c(O)ncnc32)O1 [3'-Deoxyinosine] | 0 | 0 |  |  |  |
| Nc1ncnc2c1ncn2[C@@H]1O[C@H](CO)[C@@H](O)[C@H]1O [Adenosine] | 0.15 |  |  |  | activity at 10000 µM [1, 5]: 5%; Substrate specificity of purine nucleoside phosphorylase, in words [1]: does not recognize them as the substrate |
| Nc1ncnc2c1ncn2[C@@H]1O[C@H](CO)[C@@H](O)[C@@H]1O [Arabinofuranosyl adenine] |  |  |  |  | activity at 10000 µM [1, 5]: 0% |
| O=c1ccn([C@@H]2O[C@H](CO)[C@@H](O)[C@@H]2O)c(=O)[nH]1 [Arabinofuranosyl uracil] |  |  |  | 0 |  |
| O=c1ccn2c(n1)O[C@H]1[C@H](O)[C@@H](CO)O[C@H]12 [Cyclouridine] |  |  | 0 | 0 |  |
| Nc1ccn([C@@H]2O[C@H](CO)[C@@H](O)[C@H]2O)c(=O)n1 [Cytidine] |  |  | 0 | 0 | Substrate specificity of pyrimidine nucleoside phosphorylase, in words [2]: does not recognize them as the substrate |
| Nc1nc2c(ncn2[C@@H]2O[C@H](CO)[C@@H](O)[C@H]2O)c(=O)[nH]1 [Guanosine] | 2.15 | 84 |  |  | Substrate specificity of purine nucleoside phosphorylase, in words [1]: specific |
| OC[C@H]1O[C@@H](n2cnc3c(O)ncnc32)[C@H](O)[C@@H]1O [Inosine] | 2.55 | 100 |  |  | Substrate specificity of purine nucleoside phosphorylase, in words [1]: specific |
| O=c1[nH]cc([C@@H]2O[C@H](CO)[C@@H](O)[C@H]2O)c(=O)[nH]1 [Pseudouridine] |  |  | 0 | 0 |  |
| Cc1cn([C@@H]2O[C@H](CO)[C@@H](O)[C@H]2O)c(=O)[nH]c1=O [Ribofuranosyl thymine] |  |  |  | 38 |  |
| Cc1cn([C@H]2C[C@H](O)[C@@H](CO)O2)c(=O)[nH]c1=O [Thymidine] |  |  | 1.71 | 67 | Substrate specificity of pyrimidine nucleoside phosphorylase, in words [2]: specific |
| O=c1ccn([C@@H]2O[C@H](CO)[C@@H](O)[C@H]2O)c(=O)[nH]1 [Uridine] |  |  | 1.73 | 68 | Substrate specificity of pyrimidine nucleoside phosphorylase, in words [2]: specific |
